# pIC50: −log10 of the molar value.
# Tests used:
# PDE4D2 = PDE4D2 (Homo sapiens, UniProt Q08499); experiment: PDE4D2 enzyme experiment (AMP-glo, cAMP substrate); format: biochemical; settings: read-out: PDE4D2 IC50 Binding
# Description: Inhibition rate % ^= (1 - (RLUpositive control - RLUcompound)/(RLUpositive control - RLUnegative control)) * 100.
# PDE4B2 [1] = target: T1, PDE4B2 (Homo sapiens, UniProt Q07343); experiment: PDE4B2 cell experiment (cAMP, Eu-cAMP tracer / Ulight-anti-cAMP); format: cell-based; settings: Flpin-293-PDE4B2 cells
# T1 construct: expressed in transfected cells; host or cells: Flp-In-293 (Flpin-293-PDE4B2 [sic])
# Description: All compounds were dissolved in DMSO into 10 mM or 20 mM stock solutions. The compound to be tested was diluted with DMSO with a 3-fold gradient. […] 40 nL/well of the compound or a DMSO control was transferred to a 384-well plate by using Echo 550 instrument. […] The plate was incubated at 37°C for 30 minutes. Eu-cAMP tracer and Ulight-anti-cAMP were frozen and thawed and diluted in a lysis buffer. 10 of µl Eu-cAMP tracer was added to an experimental well, and 10 µl of Ulight-anti-cAMP was added to the experimental well. The reaction plate was centrifuged at 200 g at room temperature for 30 s and then left to stand at 25°C for 1 h, and data was then collected by Envision. Inhibition % = 100 - (Signal compound - SignalAve positive control)/(SignalAve negative control - SignalAve positive control) × 100. Graphpad 8.0 software was then used to obtain an IC50 value by calculation using Y = Bottom + (Top - Bottom)/(1 + 10^((LogIC50 - X) * HillSlope)).
# PDE4B2 [2] = target: T1, PDE4B2; experiment: PDE4B2 enzyme experiment (AMP-glo, cAMP substrate); format: biochemical
# T1 sequence (Q07343 1-564 isoform Q07343-2): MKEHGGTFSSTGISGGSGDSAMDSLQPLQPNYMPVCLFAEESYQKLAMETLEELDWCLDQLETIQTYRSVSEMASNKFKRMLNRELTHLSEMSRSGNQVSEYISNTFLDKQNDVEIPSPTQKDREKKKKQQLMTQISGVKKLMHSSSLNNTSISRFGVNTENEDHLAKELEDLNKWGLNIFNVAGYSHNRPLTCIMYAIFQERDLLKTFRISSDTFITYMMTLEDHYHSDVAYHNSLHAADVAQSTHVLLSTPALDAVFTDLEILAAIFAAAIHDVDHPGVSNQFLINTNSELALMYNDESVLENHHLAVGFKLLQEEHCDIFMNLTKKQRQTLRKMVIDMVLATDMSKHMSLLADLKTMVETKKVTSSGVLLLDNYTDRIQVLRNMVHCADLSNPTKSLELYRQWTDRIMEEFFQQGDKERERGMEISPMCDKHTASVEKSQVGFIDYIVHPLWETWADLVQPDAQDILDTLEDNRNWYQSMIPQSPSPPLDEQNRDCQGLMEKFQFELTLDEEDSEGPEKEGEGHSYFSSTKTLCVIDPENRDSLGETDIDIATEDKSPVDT
# Sequence of PDE4D2 (Q08499 303-809 limits assumed): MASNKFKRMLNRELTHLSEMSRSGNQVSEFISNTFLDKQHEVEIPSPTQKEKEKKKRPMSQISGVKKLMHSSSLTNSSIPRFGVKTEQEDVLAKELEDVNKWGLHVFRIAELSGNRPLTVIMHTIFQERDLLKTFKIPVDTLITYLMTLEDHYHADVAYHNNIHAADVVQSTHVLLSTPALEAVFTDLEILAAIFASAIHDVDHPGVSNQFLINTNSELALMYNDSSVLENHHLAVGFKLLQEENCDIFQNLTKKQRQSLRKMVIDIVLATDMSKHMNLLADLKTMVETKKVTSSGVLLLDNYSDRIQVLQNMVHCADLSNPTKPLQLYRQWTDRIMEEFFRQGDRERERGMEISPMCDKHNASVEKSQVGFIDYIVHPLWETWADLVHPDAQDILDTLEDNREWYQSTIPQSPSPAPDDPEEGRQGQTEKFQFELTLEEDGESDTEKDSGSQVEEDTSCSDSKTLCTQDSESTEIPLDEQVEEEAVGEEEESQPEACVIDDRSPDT
compound,measurement,setting,value
O=C(O)Cc1ccc(Nc2nc(N3CCc4cc(Cl)ccc4C3)nc3c2[S@+]([O-])CC3)cc1 [Compound 129],pIC50,PDE4D2,9.15
same,Cell Inhibition% @1 nM,PDE4B2 [1]; 1 nM,6.93%
same,Cell Inhibition% @10 nM,PDE4B2 [1]; 10 nM,39.59%
same,Cell Inhibition% @100 nM,PDE4B2 [1]; 100 nM,72.19%
same,pIC50,PDE4B2 [2],9.69
